What was measured:
[1] = system: sphaerotheca fuliginea; assay: Sphaerotheca-test (cucumber); assay type: in vivo; conditions: protective, application rate 500 ppm, evaluated 7 days after inoculation
[2] = system: Podosphaera leucotricha; assay: Podosphaera test (apple)/protective; assay type: in vivo; conditions: protective, application rate 100 g/ha, evaluated 7 days after inoculation
Method: Podosphaera Test (Apple)/Protective
(§1) To produce a suitable preparation of active compound, 1 part by weight of active compound is mixed with the stated amounts of solvent and emulsifier, and the concentrate is diluted with water to the desired concentration.
To test for protective activity, young plants are sprayed with the preparation of active compound at the stated rate of application. After the spray coating has dried on, the plants are inoculated with an aqueous spore suspension of the causal agent of apple mildew (Podosphaera leucotricha). The plants are then placed in a greenhouse at approximately 23° C. and a relative atmospheric humidity of approximately 70%.
The test is evaluated 7 days after the inoculation. 0% means an efficacy which corresponds to that of the control, while an efficacy of 100% means that no disease is observed.

[3] = system: Venturia inaequalis; assay: Venturia test (apples)/protective; assay type: in vivo; conditions: protective, application rate 100 g/ha, evaluated 10 days after inoculation
Method: Venturia Test (Apples)/Protective
as §1
To test for protective activity, young plants are sprayed with the preparation of active compound at the stated rate of application. After the spray coating has dried on, the plants are inoculated with an aqueous conidia suspension of the causal agent of apple scab (Venturia inaequalis) and then remain for 1 day in an incubation cabinet at approximately 20° C. and a relative atmospheric humidity of 100%.
The plants are then placed in a greenhouse at approximately 21° C. and a relative atmospheric humidity of approximately 90%.
The test is evaluated 10 days after the inoculation. 0% means an efficacy which corresponds to that of the control, while an efficacy of 100% means that no disease is observed.

[4] = system: Spodoptera frugiperda; assay: Spodoptera frugiperda-test (sensible strain); assay type: in vivo; conditions: cabbage leaves dipped, larvae, after six days
Method: Spodoptera frugiperda-Test (Sensible Strain)
Pieces of cabbage leaves (Brassica oleracea) are treated by being dipped into the preparation of the active compound of the desired concentration and are infested with larvae of the fall army worm (Spodoptera frugiperda) as long as the leaves are still moist.
After six days the mortality in % is determined. 100% means that all the caterpillars have been killed; 0% means that none of the caterpillars have been killed.

[5] = system: Botrytis cinerea; assay: Botrytis test (beans)/protective; assay type: in vivo; conditions: protective, application rate 500 g/ha, lesion size 2 days after inoculation
Method: Botrytis Test (Beans)/Protective
as §1
To test for protective activity, young plants are sprayed with the preparation of active compound. After the spray coating has dried on, 2 small pieces of agar covered with growth of Botrytis cinerea are placed on each leaf. The inoculated plants are placed in a darkened chamber at 20° C. and a relative atmospheric humidity of 100%.
2 days after the inoculation, the size of the lesions on the leaves is evaluated. 0% means an efficacy which corresponds to that of the control, while an efficacy of 100% means that no disease is observed.

| Compound | chromatographic logP | efficacy [1] [%] | other results |
| --- | --- | --- | --- |
| CCCCCC[C@H]1C(=O)N[C@@]2([C@@H](O)C(C)C)C(=O)O[C@@]12C [(1R,4R,5S)-4-hexyl-1-[(1S)-1-hydroxy-2-methylpropyl]-5-methyl-6-oxa-2-azabicyclo[3.2.0]heptane-3,7-dione] | 2.87 | – | – |
| CCCCCC[C@@H]1C(=O)N[C@@]2([C@@H](O)C(C)C)C(=O)O[C@@]12C [(1R,4S,5S)-4-hexyl-1-[(1S)-1-hydroxy-2-methylpropyl]-5-methyl-6-oxa-2-azabicyclo[3.2.0]heptane-3,7-dione] | 2.79 | – | – |
| CCCCCC[C@H]1C(=O)N[C@@]2([C@@H](O)C(C)C)C(=O)O[C@@]12C [Example 8, (1R,4R,5S)-4-hexyl-1-[(1S)-1-hydroxy-2-methylpropyl]-5-methyl-6-oxa-2-azabicyclo[3.2.0]heptane-3,7-dione] | – | 70 | – |
| CCCCCC[C@H]1C(=O)N[C@@]2([C@@H](O)[C@@H]3C=CCCC3)C(=O)O[C@@]12C [Example 1, (1R,4R,5S)-1-[(S)-(1S)-2-cyclohexen-1-yl(hydroxy)methyl]-4-hexyl-5-methyl-6-oxa-2-azabicyclo[3.2.0]heptane-3,7-dione] | – | 70 | efficacy [2]: 100%; efficacy [3]: 100%; efficacy (mortality) [4]: 100%; efficacy [5]: more than 90% |

Reference: patent publication US20080064736A1, “Substituted 2-Pyrrolidone Derivatives as Fungicides and Insecticides” (Bayer Cropscience AG, priority 2004, published 2008)
